The test system of test [1] is m^6 A in cellular mRNA of MOLM-13 cells. Briefly: m^6 A-mRNA LC-MS/MS assay (m^6 A cellular assay). Format: cell-based. The settings on record: Homo sapiens, 24 hours incubation, LC-MS/MS of m^6 A/A in mRNA. On the procedure:
m^6 A-mRNA LC-MS/MS Assay
5×10^6 MOLM-13 (DSMZ) cells were seeded into 10 cm dishes in RPMI 1640 media containing 10% fetal bovine serum and placed in a humidified tissue culture incubator at 37° C. overnight. Compounds were resuspended in 100% DMSO and dosed into each dish at a fixed concentration to comprise an 8-point dose response with a 4-fold serial dilution ranging from 25 μM to 1.5 nM in 0.25% DMSO final and allowed to incubate for 24 hours in a humidified tissue culture incubator at 37° C. Cells were harvested by centrifugation followed by mRNA extraction using DTRECT Dynabeads mRNA DTRECT kit (Life Technologies). mRNA was quantified on NanoDrop spectrophotometer (Thermo Fisher Scientific) and digested into single nucleosides using Nucleoside Digestion Mix (New England Biolabs). Nucleosides are quantified with retention time on a BEH […] column (Waters) and the nucleoside-to-base ion mass transition of 282.1-150.1 (m^6 A) and 268-136 (A) on an API 6500+ triple quadrupole mass spectrometer. Quantification is performed in comparison with the standard curve, obtained from pure nucleoside standards (Selleck Chemicals) running with the same batch of samples. Percentage m^6 A in cellular mRNA is calculated as 100*(m^6 A/A).

In test [2] the target is METTL3/METTL14 (Homo sapiens, UniProt Q86U44). The test can be described thus: METTL3-14 standard enzyme assay (3H-SAM flashplate scintillation). Format: biochemical. The note with it: METTL3/METTL14 2.5 nM, RNA 100 nM, 3H-SAM 100 nM, 30 min. In short, it runs like this: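 METTL3/METTL14 (2.5 nM final) preincubated 5 min with compound in 20 mM HEPES pH 7.5, 50 mM KCl, 250 μM MgCl2, 1 mM DTT, ambient temperature; started with 100 nM 3′-biotinylated RNA (UCUGGACUAAA) and 100 nM 3H-SAM. After 30 min, quenched with 15 μM cold SAM; methylated RNA captured on streptavidin flashplates and counted by scintillation.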

The target in test [3] is METTL1/WDR4 (Homo sapiens, UniProt Q9UBP6). Briefly: METTL1 assay (3H-SAM flashplate scintillation). The format is biochemical. The note with it: METTL1/WDR4 6.25 nM, RNA 25 nM, 3H-SAM 60 nM, 20 min; read-out: METTL1 IC50. Summed up: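 Radiometric methyltransfer by METTL1/WDR4 (6.25 nM f.c., 5 min preincubation) at ambient temperature in HEPES pH 7.5, KCl, MgCl2, DTT; started with 25 nM 3′-biotinylated RNA and 60 nM 3H-SAM, run 20 min, quenched with 15 μM cold SAM. Product captured on streptavidin flashplates (2 h, 25° C), counted by scintillation.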

Test [4] addresses PRMT5-MEP50 (Homo sapiens, UniProt O14744). The test can be described thus: PRMT5 assay (3H-SAM flashplate scintillation). Format: biochemical. The note with it: PRMT5-MEP50 2.5 nM, histone H4 peptide 100 nM, 3H-SAM 250 nM, 60 min. Summed up:
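PRMT5-MEP50 (2.5 nM final) preincubated 5 min with compound, then reacted 60 min at ambient temperature with 100 nM biotinylated N-acetyl histone H4 peptide and 250 nM 3H-SAM in 20 mM Tris-HCl pH 8.0, 1 mM DTT, 0.01% Tween. Quenched with 15 μM cold SAM; methylated peptide captured on streptavidin flashplates, scintillation counted.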

Test [5] deals with MOLM-13 cells. Briefly: MOLM-13 96 Hour cell proliferation assay (Cell Titer-Glo). Format: cell-based. The settings on record: Homo sapiens. On the procedure:
MOLM-13 96 Hour Cell Proliferation Assay
MOLM-13 (DSMZ) cells were seeded at 600 cells per well in a volume of 44 μL in a Greiner Bio-One CELLSTAR™ 384 Well Polystyrene Cell Culture clear bottom microplate in RPMI 1640 media containing 10% fetal bovine serum using a Multidrop Combi (ThermoFisher Scientific). Cells were incubated overnight at 37° C. in a humidified tissue culture incubator. To prevent evaporation or to reduce edge effect, add 50 μL or more H2O to an empty plate, cover, and place on top of the cell plates. The Mosquito® HTS Liquid Handler was used to make a compound/media intermediate plate by aliquoting 1 μL of compound from the initial compound dilution plate (concentrations ranging from 10.0 mM to 38.0 nM in 100% DMSO) into Bio-One 384-well polypropylene conical bottom microplate containing 49 μL of media containing the appropriate serum (50-fold dilution, 2% DMSO, compound concentrations ranging from 200.0 μM and […]). The Apricot liquid handling system was used to transfer 6.2 μL compounds from the intermediate plate into the seeding plate containing 44 μL cells (8-fold dilution spanning concentrations 25.0 μM to […], 0.25% DMSO final), and placed in a humidified tissue culture incubator at 37° C. After 96 hours, 25 μL of Cell Titer-Glo reagent (Promega) was added to each well using an Integra liquid handling system. The plate was protected from light using TopSeal-A (Black) film over the entire plate, added White Bottom seal film on the bottom of the entire plate for a better reading on the Envision, and placed on an IKA plate shaker for at 300 rpm for 10 minutes at room temperature. The plate was read on an EnVision plate reader (Perkin Elmer) using the Ultra Sensitive Luminescence protocol. Data analysis was performed by normalizing the raw luminescence units to an average of the positive control values for staurosporine (100% cell death) and the negative control values for DMSO (0% cell death). An IC50 was calculated using a 4-parameter logistic nonlinear regression model in GraphPad Prism.
In general terms: Cellular ATP, detected with luciferase, serves as a proxy for viable cell number.

Test [6] concerns the target T1, METTL16 (Homo sapiens, UniProt Q86W50).
T1 sequence (Q86W50 1-562): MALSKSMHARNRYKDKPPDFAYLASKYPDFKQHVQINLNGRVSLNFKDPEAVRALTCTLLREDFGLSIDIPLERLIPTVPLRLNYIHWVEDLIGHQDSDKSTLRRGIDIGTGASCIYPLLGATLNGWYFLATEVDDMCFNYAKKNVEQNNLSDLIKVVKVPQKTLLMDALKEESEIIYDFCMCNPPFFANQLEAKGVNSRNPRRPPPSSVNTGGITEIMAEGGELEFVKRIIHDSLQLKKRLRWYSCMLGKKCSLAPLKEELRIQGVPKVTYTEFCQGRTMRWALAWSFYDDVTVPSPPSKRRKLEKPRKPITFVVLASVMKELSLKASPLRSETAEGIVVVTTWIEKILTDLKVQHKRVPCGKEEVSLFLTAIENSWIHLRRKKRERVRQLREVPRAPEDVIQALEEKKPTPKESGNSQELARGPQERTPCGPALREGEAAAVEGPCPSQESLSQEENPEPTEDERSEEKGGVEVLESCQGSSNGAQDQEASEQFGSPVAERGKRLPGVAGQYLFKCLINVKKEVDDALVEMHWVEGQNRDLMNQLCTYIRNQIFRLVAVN
The test can be described thus: METTL16 assay (3H-SAM flashplate scintillation). Format: biochemical. The settings on record: METTL16 100 nM, RNA 50 nM, 3H-SAM 200 nM, SAM 800 nM, 20 min. In short, it runs like this:
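Radiometric methyltransferase reaction at ambient temperature in 20 mM HEPES pH 7.5, 50 mM KCl, 1 mM DTT, with 100 nM enzyme preincubated 5 min with compound. It was started with 50 nM 3′-biotinylated RNA, 200 nM 3H-SAM plus 800 nM cold SAM, run 20 min, then quenched with excess cold SAM. Product was captured on streptavidin flashplates and scintillation-counted.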

SMILES strings stand for the structures. pIC50: −log10 of the molar value.

Sequence of PRMT5-MEP50 (O14744 whole entry): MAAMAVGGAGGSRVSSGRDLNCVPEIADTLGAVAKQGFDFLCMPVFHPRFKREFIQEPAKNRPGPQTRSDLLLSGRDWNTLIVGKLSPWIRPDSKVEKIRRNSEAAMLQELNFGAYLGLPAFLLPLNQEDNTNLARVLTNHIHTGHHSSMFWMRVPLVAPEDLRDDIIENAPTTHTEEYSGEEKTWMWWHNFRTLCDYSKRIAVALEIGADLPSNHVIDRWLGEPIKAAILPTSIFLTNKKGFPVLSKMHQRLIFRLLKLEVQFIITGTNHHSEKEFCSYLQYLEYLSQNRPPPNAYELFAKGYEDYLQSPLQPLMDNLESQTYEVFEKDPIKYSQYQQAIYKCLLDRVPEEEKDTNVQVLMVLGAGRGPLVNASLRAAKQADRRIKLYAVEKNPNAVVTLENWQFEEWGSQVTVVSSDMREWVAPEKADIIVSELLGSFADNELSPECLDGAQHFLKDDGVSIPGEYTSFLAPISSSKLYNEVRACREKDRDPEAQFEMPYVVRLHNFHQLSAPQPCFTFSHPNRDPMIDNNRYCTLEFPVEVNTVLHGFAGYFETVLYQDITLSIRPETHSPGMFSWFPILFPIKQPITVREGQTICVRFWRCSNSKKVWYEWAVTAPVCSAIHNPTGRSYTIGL
Sequence of PRMT5-MEP50 (Q9BQA1 whole entry partner): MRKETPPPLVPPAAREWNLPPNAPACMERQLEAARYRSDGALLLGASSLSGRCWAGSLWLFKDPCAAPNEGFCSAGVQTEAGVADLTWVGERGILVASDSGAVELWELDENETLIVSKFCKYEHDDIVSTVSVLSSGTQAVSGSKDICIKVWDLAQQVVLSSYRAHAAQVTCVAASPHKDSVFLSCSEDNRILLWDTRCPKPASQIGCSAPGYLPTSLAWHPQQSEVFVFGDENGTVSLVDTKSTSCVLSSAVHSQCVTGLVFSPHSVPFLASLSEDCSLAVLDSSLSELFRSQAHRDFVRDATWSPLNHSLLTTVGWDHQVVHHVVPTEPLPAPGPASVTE
Sequence of METTL1/WDR4 (Q9UBP6 whole entry, species assumed): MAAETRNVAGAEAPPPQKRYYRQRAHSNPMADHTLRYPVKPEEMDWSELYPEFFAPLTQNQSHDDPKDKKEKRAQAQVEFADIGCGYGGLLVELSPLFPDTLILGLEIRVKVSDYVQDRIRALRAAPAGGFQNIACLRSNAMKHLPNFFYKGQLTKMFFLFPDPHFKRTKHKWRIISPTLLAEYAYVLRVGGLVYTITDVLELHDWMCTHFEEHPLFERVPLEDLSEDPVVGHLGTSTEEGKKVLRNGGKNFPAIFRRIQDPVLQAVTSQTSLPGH
Sequence of METTL1/WDR4 (P57081 whole entry partner, species assumed): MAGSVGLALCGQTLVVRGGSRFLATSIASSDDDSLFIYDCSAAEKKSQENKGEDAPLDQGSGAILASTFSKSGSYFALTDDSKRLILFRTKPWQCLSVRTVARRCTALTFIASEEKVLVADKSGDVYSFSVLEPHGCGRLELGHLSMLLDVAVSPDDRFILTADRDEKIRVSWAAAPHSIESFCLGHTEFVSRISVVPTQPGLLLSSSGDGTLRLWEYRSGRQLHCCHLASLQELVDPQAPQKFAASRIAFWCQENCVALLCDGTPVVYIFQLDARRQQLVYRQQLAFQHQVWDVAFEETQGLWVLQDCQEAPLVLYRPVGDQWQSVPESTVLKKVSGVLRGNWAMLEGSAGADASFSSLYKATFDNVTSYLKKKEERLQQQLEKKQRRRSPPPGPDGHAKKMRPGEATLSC
Sequence of METTL3/METTL14 (Q86U44 whole entry, species assumed): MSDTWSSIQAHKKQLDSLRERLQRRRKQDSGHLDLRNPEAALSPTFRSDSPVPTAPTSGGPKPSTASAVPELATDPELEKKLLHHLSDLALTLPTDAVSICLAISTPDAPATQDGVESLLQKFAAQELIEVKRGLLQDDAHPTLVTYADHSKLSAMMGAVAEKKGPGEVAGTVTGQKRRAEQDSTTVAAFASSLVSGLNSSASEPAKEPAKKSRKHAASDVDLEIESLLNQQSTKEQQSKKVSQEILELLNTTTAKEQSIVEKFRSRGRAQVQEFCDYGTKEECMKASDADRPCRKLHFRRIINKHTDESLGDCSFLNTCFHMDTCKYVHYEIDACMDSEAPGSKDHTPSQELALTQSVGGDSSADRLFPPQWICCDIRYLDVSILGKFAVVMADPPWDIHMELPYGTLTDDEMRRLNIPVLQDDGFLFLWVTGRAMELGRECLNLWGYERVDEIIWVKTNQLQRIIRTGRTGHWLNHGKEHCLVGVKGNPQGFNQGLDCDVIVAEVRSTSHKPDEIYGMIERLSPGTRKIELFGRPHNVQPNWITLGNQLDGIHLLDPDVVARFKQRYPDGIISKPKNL
Sequence of METTL3/METTL14 (Q9HCE5 whole entry partner, species assumed): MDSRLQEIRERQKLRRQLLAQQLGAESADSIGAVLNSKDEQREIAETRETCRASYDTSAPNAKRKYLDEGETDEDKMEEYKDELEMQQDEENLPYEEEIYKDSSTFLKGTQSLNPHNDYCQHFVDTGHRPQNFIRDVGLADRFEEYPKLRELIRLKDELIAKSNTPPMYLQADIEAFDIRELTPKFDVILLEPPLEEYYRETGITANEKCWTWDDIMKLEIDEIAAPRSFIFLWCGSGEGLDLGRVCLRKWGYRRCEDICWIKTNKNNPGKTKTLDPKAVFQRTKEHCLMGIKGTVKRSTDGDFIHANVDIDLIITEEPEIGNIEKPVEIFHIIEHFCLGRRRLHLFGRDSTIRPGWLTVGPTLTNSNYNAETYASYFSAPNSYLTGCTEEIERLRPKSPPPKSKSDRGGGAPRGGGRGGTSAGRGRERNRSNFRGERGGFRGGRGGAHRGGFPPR

The pIC50 is the IC50 on a negative log10 scale, so that one unit is a factor of ten. `CNc1ccc2ccc(OCc3cncc(-n4cc(Cl)c5c(N)ncnc54)n3)cc2n1` [Compound I-20]: the pIC50 in test [1] is 5.00 to 6.00; in test [2] it was greater than 8.00; in test [3], less than 6.00; in test [4] it was less than 6.00.

On to `Cc1cc(N)c2ccc(OCc3cncc(-n4ccc5c(N)ncnc54)c3)cc2n1` [Compound I-48], for which the pIC50 in test [5] is no more than 5.00; in test [2], 6.00 to 7.00; in test [6], less than 6.00; in test [4], less than 6.00.

In the case of `CCc1cc(N)c2ccc(OCc3cncc(-n4cc(Cl)c5c(N)ncnc54)c3)cc2n1` [Compound I-52], the pIC50 was no more than 5.00 in test [1], greater than 8.00 in test [2], less than 6.00 in test [6] and less than 6.00 in test [4].

Turning to `Nc1ncnc2c1c(Cl)cn2-c1cncc(COc2ccc3ccc(NCC4CC4)nc3c2)c1` [Compound I-55], the pIC50 in test [5] was 5.00 to 6.00; in test [2] it was 6.00 to 7.00; in test [6], less than 6.00; in test [4], less than 6.00.

For `CN(C)CCNc1cc(C2CCC2)nc2cc(OCc3cncc(-n4ccc5c(N)ncnc54)c3)ccc12` [Compound I-92], the negative-log IC50 (pIC50) is greater than 6.00 in test [5]; 5.00 to 6.00 in test [1]; greater than 8.00 in test [2]; less than 6.00 in test [3]; less than 6.00 in test [4].

As to `Cn1ccc(-c2cn(-c3cncc(CCc4ccc5ccc(N6CCC6)nc5c4)c3)c3ncnc(N)c23)n1` [Compound I-104], the negative logarithm of the IC50 (pIC50) in test [5] is greater than 6.00; in test [1], greater than 6.00; in test [2], greater than 8.00; in test [4], less than 6.00.

Take `CCNc1ccc2ccc(CCc3cncc(-n4cc(-c5ccn(C)n5)c5c(N)ncnc54)c3)cc2n1` [Compound I-106]: the pIC50 was greater than 6.00 in test [5], greater than 6.00 in test [1], greater than 8.00 in test [2] and less than 6.00 in test [4].

On to `CCc1cc(N2CCOCC2)c2ccc(OCc3cncc(-n4ccc5c(N)ncnc54)c3)cc2n1` [Compound I-108], for which the pIC50 was 5.00 to 6.00 in test [5], 5.00 to 6.00 in test [1], greater than 8.00 in test [2] and less than 6.00 in test [4].

On to `CNc1ccc2ccc(CCc3cncc(-n4cc(C5CCCC5)c5c(N)ncnc54)n3)cc2n1` [Compound I-110], for which the pIC50 in test [1] is 5.00 to 6.00; in test [2], greater than 8.00; in test [6], less than 6.00; in test [3] it was less than 6.00; in test [4], less than 6.00.

Regarding `CCc1cc(NC)c2ccc(OCc3cncc(-n4cc(-c5ccn(C)n5)c5c(N)ncnc54)c3)cc2n1` [Compound I-135], the pIC50 in test [5] is greater than 6.00; in test [1], 5.00 to 6.00; in test [2] it was greater than 8.00.

As to `CCc1cc(N(C)C2CC2)c2ccc(OCc3cncc(-n4cc(-c5ccn(C)n5)c5c(N)ncnc54)c3)cc2n1` [Compound I-136], the results for the pIC50 in test [5], in test [1] and in test [2] were greater than 6.00, 5.00 to 6.00 and greater than 8.00, respectively.

In the case of `CCc1cc(N(C)CC2CC2)c2ccc(OCc3cncc(-n4cc(-c5ccn(C)n5)c5c(N)ncnc54)c3)cc2n1` [Compound I-137], the pIC50 in test [5] was greater than 6.00; in test [1], 5.00 to 6.00; in test [2], greater than 8.00.

On to `CCc1cc(NCCOC)c2ncc(OCc3cncc(-n4cc(-c5ccn(C)n5)c5c(N)ncnc54)c3)cc2n1` [Compound I-138], for which the pIC50 in test [5] is greater than 6.00; in test [1], 5.00 to 6.00; in test [2] it was greater than 8.00.

With `Nc1ncnc2c1c([C@@H]1CCCO1)cn2-c1cncc(COc2ccc3ccc(N4CCC4)nc3c2)c1` [Compound I-145], the negative-log IC50 (pIC50) was greater than 6.00 in test [5], greater than 6.00 in test [1] and greater than 8.00 in test [2].

Take `CCc1cc(N(C)C)c2ccc(OCc3cncc(-n4cc(-c5ccn(C)n5)c5c(N)ncnc54)c3)cc2n1` [Compound I-147]: the pIC50 was greater than 6.00 in test [5], no more than 5.00 in test [1] and greater than 8.00 in test [2].

With `CCc1cc(N(C)CCN(C)C)c2ccc(CCc3cncc(-n4cc(-c5ccn(C)n5)c5c(N)ncnc54)c3)cc2n1` [Compound I-155], the results for the pIC50 in test [5], in test [1] and in test [2] were greater than 6.00, 5.00 to 6.00 and greater than 8.00, respectively.

For `CCc1cc(NCCN(C)C)c2c(F)cc(CCc3cncc(-n4cc(-c5ccn(C)n5)c5c(N)ncnc54)c3)cc2n1` [Compound I-227], the pIC50 in test [5] is greater than 6.00; in test [1], 5.00 to 6.00; in test [2], greater than 8.00.

For `CCc1cc(NCCN(C)C)c2c(F)cc(OCc3cncc(-n4cc(-c5ccn(C)n5)c5c(N)ncnc54)c3)cc2n1` [Compound I-230], the results for the pIC50 in test [5], in test [1] and in test [2] were 5.00 to 6.00, no more than 5.00 and greater than 8.00, respectively.

On to `CNc1cc(CCCN2CCOCC2)c2ccc(OCc3cncc(-n4ccc5c(N)ncnc54)c3)cc2n1` [Compound I-233], for which the negative logarithm of the IC50 (pIC50) was 5.00 to 6.00 in test [5], no more than 5.00 in test [1], greater than 8.00 in test [2] and less than 6.00 in test [4].

As to `CNc1ccc2ccc(OCc3cncc(-n4cc(-c5ccc(CNCCS(C)(=O)=O)o5)c5c(N)ncnc54)c3)cc2n1` [Compound I-236], the pIC50 in test [5] is 5.00 to 6.00; in test [1] it was 5.00 to 6.00; in test [2], greater than 8.00.

Values taken from patent US20220372040A1, “METTL3 MODULATORS” (Accent Therapeutics, Inc., priority 2020, published 2022).
